“And” between values parts separate entries of the source, which are not always exact repeats. Equal entries are not always repeated.
Assays:
[1] = Shake-flask solubility with spectrophotometric measurement in aqueous DES mixtures; assay type: physicochemical
Protocol: (§1) In order to determine the solubility of the three studied phenolic acids in deep eutectic solvents, a very well-established shake-flask method coupled with spectrophotometric measurements was utilized. The initial procedure involved the preparation of various DESs, which was conducted by mixing their HBA and HBD counterparts in a glass vessel and heating the composition until the formation of a transparent, uniform liquid. […] For additional measurements, the DESs were mixed with water in varying proportions, creating aqueous DES systems. Saturated solutions of CAF, SYR, and COU were obtained by adding excess amounts of these compounds to test tubes containing either a neat deep eutectic solvent or its aqueous solution. Such samples were placed in the Orbital Shaker Incubator ES-20/60 from Biosan (Riga, Latvia) and heated for 24 h at 25 °C, 30 °C, 35 °C, and 40 °C (±0.1 °C) with simultaneous mixing at 60 rpm. Before measurements, the samples were filtered using a PTFE syringe filter from Qpore (Dallas, TX, USA) with a 0.22 μm pore size. In order to avoid possible precipitation of the saturated solutions at decreased temperatures, the test tubes, syringes, pipette tips, and filters were kept at a temperature identical to that of the samples. The spectrophotometric measurements required the preparation of calibration curves for the three APIs. This involved the preparation of a stock solution of each compound in methanol, which was later successfully diluted, and the obtained solutions of varying concentrations were measured using an A360 spectrophotometer from AOE Instruments (Shanghai, China). The wavelength range was set to 200-500 nm, and the resolution was 1 nm. The analytical wavelengths were determined to be 324 nm for caffeic acid, 273 nm for syringic acid, and 308 nm for p-coumaric acid. The final regression equations, obtained after averaging three distinct sets of measurements, are collected in Table 2 together with determination coefficients and limits of detection (LOD) and quantification (LOQ) for the calibration curves. The measurements of the samples were conducted with the same spectrophotometer and identical settings. Methanol was used for the dilution of the samples so that they could remain within the linearity range of the method. Complete spectra of the samples were recorded, but for the solubility determination, the absorbance values at a specific analytical wavelength were considered. These values were combined with the corresponding regression equations of the calibration curves and served for the calculation of the concentration of the three phenolic acids in the studied samples. The densities of such samples were also measured, and for this task 1 mL of each sample was weighed to a precision of 0.1 mg using an AS 110 R2.PLUS analytical balance from […] (Radom, Poland). The obtained densities enabled the calculation of mole fractions of CAF, SYR, and COU dissolved in the studied DESs. For each considered system, three distinct measurements were conducted, and the results were averaged.

[2] = Shake-flask solubility with spectrophotometric measurement in neat deep eutectic solvents; assay type: physicochemical
Protocol: as §1

## O=C(O)C=Cc1ccc(O)c(O)c1 [caffeic acid, 3,4-dihydroxycinnamic acid]
[1]; ChCl – TEG 1:2 + water, x*DES 0.3, 35°C
  Mole fraction solubility: 0.0492±0.0002 mole fraction
[1]; ChCl – TEG 1:2 + water, x*DES 0.3, 40°C
  Mole fraction solubility: 0.0665±0.0004 mole fraction
[1]; ChCl – TEG 1:2 + water, x*DES 0.4, 25°C
  Mole fraction solubility: 0.0381±0.0003 mole fraction
[1]; ChCl – TEG 1:2 + water, x*DES 0.4, 30°C
  Mole fraction solubility: 0.0481±0.0003 mole fraction
[1]; ChCl – TEG 1:2 + water, x*DES 0.4, 35°C
  Mole fraction solubility: 0.0652±0.0003 mole fraction
[1]; ChCl – TEG 1:2 + water, x*DES 0.4, 40°C
  Mole fraction solubility: 0.0893±0.0002 mole fraction
[1]; ChCl – TEG 1:2 + water, x*DES 0.5, 25°C
  Mole fraction solubility: 0.0491±0.0004 mole fraction
[1]; ChCl – TEG 1:2 + water, x*DES 0.5, 30°C
  Mole fraction solubility: 0.0612±0.0003 mole fraction
[1]; ChCl – TEG 1:2 + water, x*DES 0.5, 35°C
  Mole fraction solubility: 0.0841±0.0005 mole fraction
[1]; ChCl – TEG 1:2 + water, x*DES 0.5, 40°C
  Mole fraction solubility: 0.1208±0.0009 mole fraction
[1]; ChCl – TEG 1:2 + water, x*DES 0.6, 25°C
  Mole fraction solubility: 0.0593±0.0005 mole fraction
[1]; ChCl – TEG 1:2 + water, x*DES 0.6, 30°C
  Mole fraction solubility: 0.0754±0.0003 mole fraction
[1]; ChCl – TEG 1:2 + water, x*DES 0.6, 35°C
  Mole fraction solubility: 0.1040±0.0006 mole fraction
[1]; ChCl – TEG 1:2 + water, x*DES 0.6, 40°C
  Mole fraction solubility: 0.1464±0.0014 mole fraction
[1]; ChCl – TEG 1:2 + water, x*DES 0.7, 25°C
  Mole fraction solubility: 0.0715±0.0007 mole fraction
[1]; ChCl – TEG 1:2 + water, x*DES 0.7, 30°C
  Mole fraction solubility: 0.0924±0.0007 mole fraction
[1]; ChCl – TEG 1:2 + water, x*DES 0.7, 35°C
  Mole fraction solubility: 0.1254±0.0014 mole fraction
[1]; ChCl – TEG 1:2 + water, x*DES 0.7, 40°C
  Mole fraction solubility: 0.1718±0.0012 mole fraction
[1]; ChCl – TEG 1:2 + water, x*DES 0.8, 25°C
  Mole fraction solubility: 0.0827±0.0009 mole fraction
[1]; ChCl – TEG 1:2 + water, x*DES 0.8, 30°C
  Mole fraction solubility: 0.1080±0.0013 mole fraction
[1]; ChCl – TEG 1:2 + water, x*DES 0.8, 35°C
  Mole fraction solubility: 0.1418±0.0015 mole fraction
[1]; ChCl – TEG 1:2 + water, x*DES 0.8, 40°C
  Mole fraction solubility: 0.1910±0.0018 mole fraction
[1]; ChCl – TEG 1:2 + water, x*DES 0.9, 25°C
  Mole fraction solubility: 0.0851 mole fraction and 0.0851±0.0005 mole fraction
[1]; ChCl – TEG 1:2 + water, x*DES 0.9, 30°C
  Mole fraction solubility: 0.1116±0.0017 mole fraction
[1]; ChCl – TEG 1:2 + water, x*DES 0.9, 35°C
  Mole fraction solubility: 0.1479±0.0013 mole fraction
[1]; ChCl – TEG 1:2 + water, x*DES 0.9, 40°C
  Mole fraction solubility: 0.1964±0.0019 mole fraction
[1]; ChCl – TEG 1:2, x*DES 1.0 (neat DES), 25°C
  Mole fraction solubility: 0.0835±0.0010 mole fraction
[1]; ChCl – TEG 1:2, x*DES 1.0 (neat DES), 30°C
  Mole fraction solubility: 0.1032±0.0014 mole fraction
[1]; ChCl – TEG 1:2, x*DES 1.0 (neat DES), 35°C
  Mole fraction solubility: 0.1364±0.0007 mole fraction
[1]; ChCl – TEG 1:2, x*DES 1.0 (neat DES), 40°C
  Mole fraction solubility: 0.1928±0.0017 mole fraction
[1]; ChCl-TEG 1:2, x*DES = 0.9 (xwater = 0.1), 25 °C
  Increase in the solubility compared to the neat DES: 2%
[1]; neat DES (x*DES = 1.0) involving betaine (Bet-TEG 1:2)
  Solubility increase between 25 °C and 40 °C: 161%
[1]; neat DES (x*DES = 1.0) with choline chloride (ChCl-TEG 1:2)
  Solubility increase between 25 °C and 40 °C: 231%
[2]; neat DES Bet - DEG, HBA:HBD molar ratio 1:1, 25 °C
  Mole fraction solubility: 0.0497±0.0004 mole fraction
[2]; neat DES Bet - DEG, HBA:HBD molar ratio 1:2, 25 °C
  Mole fraction solubility: 0.0576±0.0005 mole fraction
[2]; neat DES Bet - DEG, HBA:HBD molar ratio 1:4, 25 °C
  Mole fraction solubility: 0.0537±0.0004 mole fraction
[2]; neat DES Bet - ETG, HBA:HBD molar ratio 1:1, 25 °C
  Mole fraction solubility: 0.0411±0.0004 mole fraction
[2]; neat DES Bet - ETG, HBA:HBD molar ratio 1:2, 25 °C
  Mole fraction solubility: 0.0458±0.0004 mole fraction
[2]; neat DES Bet - GLY, HBA:HBD molar ratio 1:1, 25 °C
  Mole fraction solubility: 0.0561±0.0004 mole fraction
[2]; neat DES Bet - GLY, HBA:HBD molar ratio 1:2, 25 °C
  Mole fraction solubility: 0.0622±0.0006 mole fraction
[2]; neat DES Bet - GLY, HBA:HBD molar ratio 1:4, 25 °C
  Mole fraction solubility: 0.0573±0.0002 mole fraction
[2]; neat DES Bet - TEG, HBA:HBD molar ratio 1:1, 25 °C
  Mole fraction solubility: 0.0655±0.0012 mole fraction
[2]; neat DES Bet - TEG, HBA:HBD molar ratio 1:2, 25 °C
  Mole fraction solubility: 0.0755±0.0010 mole fraction
[2]; neat DES Bet - TEG, HBA:HBD molar ratio 1:2, 25 °C, listed as Caffeic acid
  Mole fraction solubility: 0.0755 mole fraction
[2]; neat DES Bet - TEG, HBA:HBD molar ratio 1:4, 25 °C
  Mole fraction solubility: 0.0716±0.0007 mole fraction
[2]; neat DES ChCl - DEG, HBA:HBD molar ratio 1:1, 25 °C
  Mole fraction solubility: 0.0584±0.0003 mole fraction
[2]; neat DES ChCl - DEG, HBA:HBD molar ratio 1:2, 25 °C
  Mole fraction solubility: 0.0664±0.0005 mole fraction
[2]; neat DES ChCl - ETG, HBA:HBD molar ratio 1:1, 25 °C
  Mole fraction solubility: 0.0435±0.0004 mole fraction
[2]; neat DES ChCl - ETG, HBA:HBD molar ratio 1:2, 25 °C
  Mole fraction solubility: 0.0494±0.0003 mole fraction
[2]; neat DES ChCl - ETG, HBA:HBD molar ratio 1:4, 25 °C
  Mole fraction solubility: 0.0471±0.0003 mole fraction
[2]; neat DES ChCl - TEG, HBA:HBD molar ratio 1:2, 25 °C
  Mole fraction solubility: 0.0835 mole fraction

From paper PMC12564265, “Navigating the Deep Eutectic Solvent Landscape: Experimental and Machine Learning Solubility Explorations of Syringic, p-Coumaric, and Caffeic Acids” (International Journal of Molecular Sciences, 2025)
